Results published in US9238040B2, “Chemoprevention of colorectal cancer by mesalamine/sulfasalazine” (RUTGERS, THE STATE UNIVERSITY OF NEW JERSEY, priority 2005, dated 2016).

Tests used:
LS180 cells = assay: Microarray analysis of gene expression in LS180 cells; format: cell-based, human; details: 200 mM, 4 hours and 24 hours, compared with 5-ASA untreated LS180 cells
TC22 = assay: FACS of TC22 expression in LS180 colon cancer cells (antibody TC22-4); format: cell-based, human; details: 4 hours, Serum Free Media
Description: Specific monoclonal antibodies, CG3 for hTM5 and TC22-4 for TC22 were used against the cells in a fluorescent activated cell sorter (FACS). Reverse transcriptase PCR (RT-PCR) was utilized to quantify the transcription of hTM5 and TC-22. […] Dishes were washed with 10 ml PBS 3 times. Cells were detached with 0.25% trypsin-EDTA and collected. All cells were >90% viable. The cells were washed and then fixed by using 4% paraformaldehyde for 5 minutes. Cells were washed 2 times. Cells were then resuspended and the first antibody was added: MOPC IgM(0.5 mg/mL) 1 μl (1:100), MOPCIgG(0.5 mg/mL) 1 μl (1:100), CG3 IgM(2.4 mg/mL) 1 μL of (2+3 μL Buffer) (1:250) for hTM5, TC22-4 IgG(30 mg/mL) 1 μL of (1+9 uL Buffer) (1:1000) for TC22. The suspension was incubated at 4° C. for 30 minutes, shaken and washed (2 times) with 30 vol. of PBS/0.5 BSA/2 mm EDTA. The second antibody was added: 1 μl tube (1:100) Cy2 (Cyanine)-conj. G-α-M IgM or Cy2 (Cyanine)-conj. G-α-M IgM, then incubated at 4° C. for 30 minutes, shaken and washed (2 times) with 100 vol. buffer 2 times. The cells were then resuspended in 1 ml wash buffer. FACS was used to detect hTM5 and TC22 expression within 1 hour. […] The graphs show the number of cells as a function of fluorescence intensity. LM1 represents the percent of cells present but not expressing TC22. LM2 represents the percent of cells containing TC22.

## Nc1ccc(O)c(C(=O)O)c1 [5-ASA, 5-Aminosalicylic Acid]
LS180 cells
  Number of genes down-regulated: >385
  Number of genes up-regulated: >194
TC22
  expression of TC22 (FACS, FIG. 1f): reduced the expression of TC22
